In the NIST ThermoML archive (doi:10.1021/acs.jced.6b00888):

Conditions: 101.3 kPa, Liquid, Vibrating tube method

CN(C)CCO [2-(N,N-dimethylamino)ethanol]
Conditions	mass density [kg/m3]
293.15 K	888.2
298.15 K	884
303.15 K	879.8
308.15 K	875.5
313.15 K	871.2
318.15 K	866.8
323.15 K	862.4
328.15 K	858
333.15 K	853.5
338.15 K	849
343.15 K	844.4
